Experimental data reported in patent US5674854A, “Inclusion complex of beta-cyclodextrin and diclofenac, its preparation and use” (Farmarc Nederland BV, priority 1993, dated 1997).

Experiments:
physchem = assay type: physicochemical; conditions: identical conditions (deionized water, room temperature, 24 hours); read-out: equilibrium solubility of diclofenac sodium in the absence of beta cyclodextrin
Method: The vial is sealed and placed in a laboratory shaker. The mixture is allowed to shake for 5 minutes and then equilibrated for 24 hours. The supernatant is filtered through a 0,22 micron filter and analyzed for diclofenac concentration by HPLC.

[1] = phase solubility analysis; cited from earlier work

solubility thermodynamic at 24 h (physchem) [µg/mL]	SMILES	effect of beta-cyclodextrin and hydroxyalkyl ether derivatives on aqueous solubility of diclofenac [1]
5000	O=C(O)Cc1ccccc1Nc1c(Cl)cccc1Cl [diclofenac sodium]	–
–	O=C(O)Cc1ccccc1Nc1c(Cl)cccc1Cl [diclofenac, 2-[(2,6-dichlorophenyl)amino]benzeneacetic acid]	increase the aqueous solubility
